# Reference: patent publication US20130281445A1 (priority 2011, published 2013)
# Target: T1, Choline Kinase alpha enzyme (Homo sapiens, UniProt P35790)
# T1 construct: hChoKα1(M1-V457) (NP_001268); GST (N); made in house; host or cells: E. coli BL21(DE3)
# Experiment: Choline Kinase Alpha Inhibition Assay (coupled NADH absorbance)
# Format: biochemical
# Details: not given
# Protocol: An assay buffer solution was prepared which consisted of 100 mM Tris-HCl (pH 7.5), 100 mM KCl, and 10 mM MgCl2. An enzyme buffer containing reagents to final assay concentrations of 290 μM NADH, 2.4 mM phosphoenolpyruvate, 60 μg/mL pyruvate kinase, 20 μg/mL lactate dehydrogenase, 200 μM choline chloride substrate and 20 nM Choline Kinase alpha enzyme was prepared in assay buffer. To 32 μL of this enzyme buffer, in a 96 well plate, was added 2 μL of VRT stock solution in DMSO. The mixture was allowed to equilibrate for 10 mins at 25° C. The enzyme reaction was initiated by the addition of 32 μL stock ATP solution prepared in assay buffer to a final assay concentration of 400 μM. Initial rate data was determined from the rate of change of absorbance at 340 nm (corresponding to stoichiometric consumption of NADH) using a Molecular Devices Spectramax plate reader (Sunnyvale, Calif.) over 15 mins at 25° C. For each IC50 determination, 12 data points covering the VRT concentration range of 0-100 μM were obtained in duplicate (DMSO stocks were prepared from an initial 10 mM VRT stock with subsequent 1:2.5 serial dilutions). IC50 values were calculated from initial rate data using the Prism software package (Prism 4.0a, Graphpad Software, San Diego, Calif.).
# hChoKα1(M1-V457) (NP_001268) was codon optimized for E. coli and cloned into a modified pGEX-2T vector. Recombinant GST-tagged ChoKα1 protein was produced in E. coli strain BL21(DE3). After growing cell cultures at 37° C. until the OD600=1, the cultures were induced with 1 mM IPTG for 16 h at 30° C. and the cells were harvested as a pellet (8500 rpm, 4° C., 20 min). The protein was purified using glutathione affinity purification followed by size exclusion via Superdex-200 26/60 (GE Healthcare). See Malito, Enrico et. al., “Journal of Molecular Biology”, Volume 364, Issue 2, pages 136-151 (November 2006).
# T1 sequence (P35790 whole entry): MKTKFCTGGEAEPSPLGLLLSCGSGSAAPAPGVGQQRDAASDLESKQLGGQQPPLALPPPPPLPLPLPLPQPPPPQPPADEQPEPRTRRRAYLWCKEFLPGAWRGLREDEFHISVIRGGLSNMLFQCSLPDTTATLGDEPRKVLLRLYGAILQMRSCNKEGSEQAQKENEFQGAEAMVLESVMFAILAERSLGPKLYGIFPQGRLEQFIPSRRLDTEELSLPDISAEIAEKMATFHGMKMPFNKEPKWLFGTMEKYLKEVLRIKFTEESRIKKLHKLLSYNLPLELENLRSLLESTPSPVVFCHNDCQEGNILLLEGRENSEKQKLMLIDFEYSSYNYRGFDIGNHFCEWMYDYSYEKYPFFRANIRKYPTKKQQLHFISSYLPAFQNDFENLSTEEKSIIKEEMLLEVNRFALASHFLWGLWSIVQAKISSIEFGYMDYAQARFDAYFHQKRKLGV
row,Structure (SMILES),IC50
1,CN1CCOc2cc(C(=O)C3CN4CCC3CC4)ccc21 (stereo not drawn) [Compound I-5],< 100 nM
2,"O=C(c1ccc(-c2ccccc2)cc1)C1CN2CCC1CC2 (stereo not drawn) [Compound I-14, (4-phenylphenyl)-quinuclidin-3-yl-methanone]",1000 to 50000 nM
3,"O=C(c1ccc(N2CCCC2)cc1)C1CN2CCC1CC2 (stereo not drawn) [Compound I-3, (4-pyrrolidin-1-ylphenyl)-quinuclidin-3-yl-methanone]",< 100 nM
4,"CN(C)c1ccc(C(=O)C2CN3CCC2CC3)cc1 (stereo not drawn) [Compound I-1, (4-dimethylaminophenyl)-quinuclidin-3-yl-methanone]",< 100 nM

# Same assay, conditions: 20 nM enzyme, 200 μM choline chloride, 400 μM ATP, 25° C.; read-out: IC50 values, Choline Kinase Alpha inhibition
row,Structure (SMILES),IC50
1,"O=C(c1cccc2ccccc12)C1CN2CCC1CC2 (stereo not drawn) [Compound I-17, 1-naphthyl(quinuclidin-3-yl)methanone]",1000 to 50000 nM
2,"CN(C)c1c(Br)cc(C(=O)C2CN3CCC2CC3)cc1Br (stereo not drawn) [Compound I-26, [3,5-dibromo-4-(dimethylamino)phenyl]-quinuclidin-3-yl-methanone]",1000 to 50000 nM
3,CN1CCc2cc(C(=O)C3CN4CCC3CC4)ccc21 (stereo not drawn) [Compound I-30],100 to 1000 nM
4,"COc1cc(OC)cc(C(=O)C2CN3CCC2CC3)c1 (stereo not drawn) [Compound I-12, (3,5-dimethoxyphenyl)-quinuclidin-3-yl-methanone]",1000 to 50000 nM
5,"O=C(c1nc2ccccc2s1)C1CN2CCC1CC2 (stereo not drawn) [Compound I-22, benzo[d]thiazol-2-yl(quinuclidin-3-yl)methanone]",1000 to 50000 nM
6,"O=C(c1cccc(Cl)c1)C1CN2CCC1CC2 (stereo not drawn) [Compound I-33, (3-chlorophenyl)-quinuclidin-3-yl-methanone]",1000 to 50000 nM
7,"O=C(c1ccc(F)c(Cl)c1)C1CN2CCC1CC2 (stereo not drawn) [Compound I-11, (3-chloro-4-fluoro-phenyl)-quinuclidin-3-yl-methanone]",1000 to 50000 nM
8,"Cc1cccc(C(=O)C2CN3CCC2CC3)c1C (stereo not drawn) [Compound I-21, (2,3-dimethylphenyl)-quinuclidin-3-yl-methanone]",1000 to 50000 nM
9,"O=C(c1ccc(Cl)cc1)C1CN2CCC1CC2 (stereo not drawn) [Compound I-34, (4-chlorophenyl)-quinuclidin-3-yl-methanone]",1000 to 50000 nM
10,"O=C(c1ccc(N2CCCCC2)cc1)C1CN2CCC1CC2 (stereo not drawn) [Compound I-4, [4-(1-piperidyl)phenyl]-quinuclidin-3-yl-methanone]",100 to 1000 nM
11,"Cc1ncccc1C(=O)C1CN2CCC1CC2 (stereo not drawn) [Compound I-24, (2-methyl-3-pyridyl)-quinuclidin-3-yl-methanone]",1000 to 50000 nM
12,"COc1ccc(C(=O)C2CN3CCC2CC3)cc1 (stereo not drawn) [Compound I-7, (4-methoxyphenyl)-quinuclidin-3-yl-methanone]",1000 to 50000 nM
13,"CC(C)(C)c1ccc(C(=O)C2CN3CCC2CC3)cc1 (stereo not drawn) [Compound I-20, (4-tert-butylphenyl)-quinuclidin-3-yl-methanone]",100 to 1000 nM
14,CC(C)c1ccc(C(=O)C2CN3CCC2CC3)cc1 (stereo not drawn) [Compound I-36],100 to 1000 nM
15,"O=C(c1cccc(-c2ccccc2)c1)C1CN2CCC1CC2 (stereo not drawn) [Compound I-18, (3-phenylphenyl)-quinuclidin-3-yl-methanone]",1000 to 50000 nM
16,"Cc1ccc(Cl)cc1C(=O)C1CN2CCC1CC2 (stereo not drawn) [Compound I-23, (5-chloro-2-methylphenyl)(quinuclidin-3-yl)methanone]",1000 to 50000 nM

row,Structure (SMILES),IC50
1,"O=C(c1cccc(F)c1)C1CN2CCC1CC2 (stereo not drawn) [Compound I-9, (3-fluorophenyl)-quinuclidin-3-yl-methanone]",1000 to 50000 nM
2,"Cc1ccc(C(=O)C2CN3CCC2CC3)cc1 (stereo not drawn) [Compound I-32, p-tolyl(quinuclidin-3-yl)methanone]",1000 to 50000 nM
3,"CCc1ccc(C(=O)C2CN3CCC2CC3)cc1 (stereo not drawn) [Compound I-16, (4-ethylphenyl)-quinuclidin-3-yl-methanone]",100 to 1000 nM
4,"CC(O)c1ccc(C(=O)C2CN3CCC2CC3)cc1 (stereo not drawn) [Compound I-29, [4-(1-hydroxyethyl)phenyl]-quinuclidin-3-yl-methanone]",1000 to 50000 nM
5,"CCN(CC)c1ccc(C(=O)C2CN3CCC2CC3)cc1 (stereo not drawn) [Compound I-2, [4-(diethylamino)phenyl]-quinuclidin-3-yl-methanone]",100 to 1000 nM
6,"O=C(c1ccc2ccccc2c1)C1CN2CCC1CC2 (stereo not drawn) [Compound I-8, 2-naphthyl(quinuclidin-3-yl)methanone]",100 to 1000 nM
7,"CCCc1ccc(C(=O)C2CN3CCC2CC3)cc1 (stereo not drawn) [Compound I-13, (4-propylphenyl)-quinuclidin-3-yl-methanone]",100 to 1000 nM
8,"O=C(c1ccc2c(c1)OCO2)C1CN2CCC1CC2 (stereo not drawn) [Compound I-15, 1,3-benzodioxol-5-yl(quinuclidin-3-yl)methanone]",1000 to 50000 nM
9,"O=C(c1ccc(OC(F)(F)F)cc1)C1CN2CCC1CC2 (stereo not drawn) [Compound I-19, quinuclidin-3-yl-[4-(trifluoromethoxy)phenyl]methanone]",1000 to 50000 nM
10,"Cc1cc(C(=O)C2CN3CCC2CC3)ccc1N(C)C (stereo not drawn) [Compound I-27, (4-(dimethylamino)-3-methylphenyl)(quinuclidin-3-yl)methanone]",100 to 1000 nM
11,"CN1CCN(C)c2cc(C(=O)C3CN4CCC3CC4)ccc21 (stereo not drawn) [Compound I-28, (1,4-dimethyl-2,3-dihydroquinoxalin-6-yl)-quinuclidin-3-yl-methanone]",100 to 1000 nM
12,"Cc1ccccc1C(=O)C1CN2CCC1CC2 (stereo not drawn) [Compound I-31, o-tolyl(quinuclidin-3-yl)methanone]",1000 to 50000 nM
13,"O=C(c1ccccc1)C1CN2CCC1CC2 (stereo not drawn) [Compound I-35, phenyl(quinuclidin-3-yl)methanone]",1000 to 50000 nM
14,"O=C(c1ccc(F)cc1)C1CN2CCC1CC2 (stereo not drawn) [Compound I-10, (4-fluorophenyl)-quinuclidin-3-yl-methanone]",1000 to 50000 nM
15,"O=C(Cc1ccccc1)C1CN2CCC1CC2 (stereo not drawn) [Compound I-6, 2-phenyl-1-(quinuclidin-3-yl)ethanone]",1000 to 50000 nM
16,"CN(C)c1ccc(C(=O)C2CN3CCC2CC3)cc1Br (stereo not drawn) [Compound I-25, [3-bromo-4-(dimethylamino)phenyl]-quinuclidin-3-yl-methanone]",100 to 1000 nM
